These results are taken from PMC4337798 (Biochimica et biophysica acta, 2010).

Molecules are shown by their SMILES.

For assay [1], the target named is T1, gastric H,K-ATPase (HKα1) (Mus musculus, UniProt Q64436). The assay can be described thus: K-ATPase activity dose response in gastric membrane vesicles. The assay is classed as cell-based.
Assay [2] deals with T1, gastric H,K-ATPase (HKα1). Described as above. The class given is cell-based. To be noted: read-out: % inhibition at 100 μM.

T1 sequence (Q64436 whole entry): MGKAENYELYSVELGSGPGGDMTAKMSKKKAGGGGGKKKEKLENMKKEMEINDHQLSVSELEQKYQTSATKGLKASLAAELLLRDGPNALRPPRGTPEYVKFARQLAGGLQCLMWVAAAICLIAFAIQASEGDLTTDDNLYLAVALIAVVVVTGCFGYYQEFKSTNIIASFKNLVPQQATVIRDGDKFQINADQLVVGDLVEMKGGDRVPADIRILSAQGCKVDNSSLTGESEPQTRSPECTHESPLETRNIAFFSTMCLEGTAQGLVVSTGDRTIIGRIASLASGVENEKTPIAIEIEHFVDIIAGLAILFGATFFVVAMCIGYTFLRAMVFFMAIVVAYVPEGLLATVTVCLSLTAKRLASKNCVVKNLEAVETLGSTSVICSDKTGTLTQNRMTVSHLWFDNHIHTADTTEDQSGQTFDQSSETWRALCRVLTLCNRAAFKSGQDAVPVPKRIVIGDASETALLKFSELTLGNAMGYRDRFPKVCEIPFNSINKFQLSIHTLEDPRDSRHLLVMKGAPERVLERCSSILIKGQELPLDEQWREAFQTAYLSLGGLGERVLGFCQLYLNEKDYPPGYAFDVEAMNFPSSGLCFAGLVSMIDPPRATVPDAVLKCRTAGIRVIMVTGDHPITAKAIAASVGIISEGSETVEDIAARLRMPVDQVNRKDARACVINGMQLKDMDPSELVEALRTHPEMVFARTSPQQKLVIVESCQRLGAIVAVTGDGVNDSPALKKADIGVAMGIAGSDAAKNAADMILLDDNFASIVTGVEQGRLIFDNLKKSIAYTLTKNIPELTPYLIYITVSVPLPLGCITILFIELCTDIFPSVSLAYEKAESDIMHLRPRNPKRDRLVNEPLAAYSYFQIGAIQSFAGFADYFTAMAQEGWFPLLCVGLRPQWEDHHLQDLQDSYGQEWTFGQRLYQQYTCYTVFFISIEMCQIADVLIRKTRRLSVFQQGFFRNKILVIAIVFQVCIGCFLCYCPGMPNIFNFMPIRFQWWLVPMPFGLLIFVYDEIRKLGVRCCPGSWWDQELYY
T1 sequence (P50992 whole entry partner): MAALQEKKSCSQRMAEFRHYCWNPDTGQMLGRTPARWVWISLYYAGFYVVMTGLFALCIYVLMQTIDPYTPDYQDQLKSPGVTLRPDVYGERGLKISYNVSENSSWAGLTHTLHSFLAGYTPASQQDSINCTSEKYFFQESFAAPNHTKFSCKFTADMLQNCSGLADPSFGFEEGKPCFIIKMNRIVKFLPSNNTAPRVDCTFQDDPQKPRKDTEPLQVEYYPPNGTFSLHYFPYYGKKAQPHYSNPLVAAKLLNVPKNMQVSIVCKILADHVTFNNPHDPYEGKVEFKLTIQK

As to `CCN(c1nc(N)c(C(=O)N=C(N)N)nc1Cl)C(C)C` [EIPA, 5-N-ethyl-N-isopropylamiloride], the “K-ATPase activity dose response in gastric membrane vesicles” value in assay [1] is “Amiloride derivatives benzamil and EIPA had similar inhibitory effects on the gastric K-ATPase activity”.
As for `N=C(N)NC(=O)c1nc(Cl)c(N)nc1N` [amiloride], the inhibition at 100 µM in assay [2] was about 65%.
Turning to `NC(=NCc1ccccc1)NC(=O)c1nc(Cl)c(N)nc1N` [benzamil], in assay [1], the “K-ATPase activity dose response in gastric membrane vesicles” value is “Amiloride derivatives benzamil and EIPA had similar inhibitory effects on the gastric K-ATPase activity”.
